The text below walks through data of ChEMBL document CHEMBL5046289, “Targeting the S2 Subsite Enables the Structure-Based Discovery of Novel Highly Selective Factor XIa Inhibitors” (J Med Chem, 2022).

Series [1] addresses T1, Coagulation factor XI (Homo sapiens, UniProt P03951). The settings on record: dose 50.0 nM, time 1.0 hrs.
In series [2] the target is T1, Coagulation factor XI. The experiment in a line: Inhibition of coagulation factor XIa (unknown origin) assessed as chromogenic substrate hydrolysis using CS-21(66) as substrate incubated for 1 hr by spectrophotometer based microplate reader method.
Series [3] deals with Plasma kallikrein (Homo sapiens, UniProt P03952). The experiment in a line: Inhibition of plasma kallikrein (unknown origin) assessed as chromogenic substrate hydrolysis using CS-31(02) as substrate incubated for 1 hr by spectrophotometer based microplate reader method.
Sequence of Plasma kallikrein (P03952 20-390 limits assumed): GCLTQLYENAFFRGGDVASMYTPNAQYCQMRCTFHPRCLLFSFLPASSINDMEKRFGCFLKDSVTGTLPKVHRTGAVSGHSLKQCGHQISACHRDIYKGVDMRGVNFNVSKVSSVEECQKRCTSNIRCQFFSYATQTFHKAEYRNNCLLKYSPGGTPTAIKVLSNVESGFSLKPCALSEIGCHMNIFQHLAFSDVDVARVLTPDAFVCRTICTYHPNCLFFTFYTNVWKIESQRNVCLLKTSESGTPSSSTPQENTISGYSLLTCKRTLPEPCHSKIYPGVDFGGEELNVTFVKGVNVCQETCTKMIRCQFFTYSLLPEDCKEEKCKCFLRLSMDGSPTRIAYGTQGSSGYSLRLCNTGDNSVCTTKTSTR
Sequence of Plasma kallikrein (P03952 391-638 limits assumed): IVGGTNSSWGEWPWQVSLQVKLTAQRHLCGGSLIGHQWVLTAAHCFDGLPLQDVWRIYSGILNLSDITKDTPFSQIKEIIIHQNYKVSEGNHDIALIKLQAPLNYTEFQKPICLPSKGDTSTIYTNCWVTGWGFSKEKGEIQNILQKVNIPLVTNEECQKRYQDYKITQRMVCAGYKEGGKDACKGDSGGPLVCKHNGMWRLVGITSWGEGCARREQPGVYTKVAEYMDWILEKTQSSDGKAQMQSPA
For series [4], the species on record is Homo sapiens. The experiment in a line: Selectivity index, ratio of IC50 for plasma kallikrein (unknown origin) to IC50 for coagulation factor XIa (unknown origin).
Series [5] is described as follows: Toxicity in C57BL/6J mouse assessed as bleeding risk at 20 mg/kg, iv measured after 15 mins by tail transection assay. Type of series: organism-based. Particulars: in vivo, 0.25 h.
Series [6] in a line: Toxicity in C57BL/6J mouse assessed as bleeding risk at 35 mg/kg, iv measured after 15 mins by tail transection assay. The settings on record: in vivo, 0.25 h. Type of series: organism-based.
A short description of series [7]: Toxicity in C57BL/6J mouse assessed as bleeding risk at 60 to 100 mg/kg, iv measured after 15 mins by tail transection assay. Type of series: organism-based. The settings on record: in vivo, 0.25 h, dose 60-100 mg/kg.

T1 sequence (P03951 19-387 limits assumed): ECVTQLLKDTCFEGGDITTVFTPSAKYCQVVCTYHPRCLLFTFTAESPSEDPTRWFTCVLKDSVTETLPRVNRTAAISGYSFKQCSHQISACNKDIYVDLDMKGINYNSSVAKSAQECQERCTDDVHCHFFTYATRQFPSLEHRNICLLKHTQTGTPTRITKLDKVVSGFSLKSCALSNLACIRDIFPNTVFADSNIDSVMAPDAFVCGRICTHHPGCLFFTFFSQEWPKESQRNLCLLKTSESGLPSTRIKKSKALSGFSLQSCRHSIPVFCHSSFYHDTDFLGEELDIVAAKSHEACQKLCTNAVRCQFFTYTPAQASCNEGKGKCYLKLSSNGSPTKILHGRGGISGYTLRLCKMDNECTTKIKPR
T1 sequence (P03951 388-625 limits assumed): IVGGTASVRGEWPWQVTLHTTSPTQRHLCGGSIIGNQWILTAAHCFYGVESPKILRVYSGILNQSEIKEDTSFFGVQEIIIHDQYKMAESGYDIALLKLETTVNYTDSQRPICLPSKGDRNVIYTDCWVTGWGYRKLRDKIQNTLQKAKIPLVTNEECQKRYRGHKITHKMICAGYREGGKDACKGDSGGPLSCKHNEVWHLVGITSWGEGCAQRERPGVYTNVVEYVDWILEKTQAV

The term inhibition denotes the percentage by which the read-out fell short of the control. Compound `O=C(O)CC[C@H](NC(=O)/C=C/c1cc(Cl)ccc1-n1cnnn1)C(=O)Nc1ccc(C(=O)O)cc1` registered an inhibition in series [1] of 6.6%.

`CN1CCCN(C(=O)CC[C@H](NC(=O)/C=C/c2cc(Cl)ccc2-n2cnnn2)C(=O)Nc2ccc(C(=O)O)cc2)CC1` had an inhibition in series [1] of 30.1%.

For `Cc1ccc(CN(CC(=O)Nc2ccc(C(=O)O)cc2)C(=O)/C=C/c2cc(Cl)ccc2-n2cnnn2)cc1`, the inhibition in series [1] was below 5%.

As to `CCc1ccc(CN(CC(=O)Nc2ccc(C(=O)O)cc2)C(=O)/C=C/c2cc(Cl)ccc2-n2cnnn2)cc1`, the inhibition in series [1] worked out at 3.6%.

In general, IC50 refers to the midpoint of a concentration-inhibition curve. Consider `CC(=O)N1CCN(C(=O)C[C@H](NC(=O)/C=C/c2cc(Cl)ccc2-n2cnnn2)C(=O)Nc2ccc(C(=O)O)cc2)CC1`, for which the values for the 50% inhibitory concentration (IC50) in series [2] and in series [3] were 76.5 nM and 17300 nM, respectively. The Ratio IC50 in series [4] came to 226. In series [1], this compound registered an inhibition of 23.2%.

Consider `CC(C)N1CCN(C(=O)C[C@H](NC(=O)/C=C/c2cc(Cl)ccc2-n2cnnn2)C(=O)Nc2ccc(C(=O)O)cc2)CC1`, for which the IC50 in series [2] turned out to be 31.2 nM; in series [3], 490 nM. For the same compound, the Ratio IC50 in series [4] was found to be 16. The same compound showed an inhibition in series [1] of 44%.

In turn, `CN1CCN(C(=O)C[C@H](NC(=O)/C=C/c2cc(Cl)ccc2-n2cnnn2)C(=O)Nc2ccc(C(=O)O)cc2)CC1` gave an inhibition in series [1] of 17.2%.

For `Cc1ccc(CN2CCN(C(=O)CC[C@H](NC(=O)/C=C/c3cc(Cl)ccc3-n3cnnn3)C(=O)Nc3ccc(C(=O)O)cc3)CC2)cc1`, the inhibition in series [1] was determined as 19.4%.

For `Cc1ccc(CN2CCN(C(=O)C[C@H](NC(=O)/C=C/c3cc(Cl)ccc3-n3cnnn3)C(=O)Nc3ccc(C(=O)O)cc3)CC2)cc1`, the half-maximal inhibitory concentration (IC50) in series [2] was 26.5 nM; in series [3], 1200 nM. Moreover, in series [4], the Ratio IC50 was found to be 45. Further, the inhibition in series [1] turned out to be 43.5%.

With `O=C(/C=C/c1cc(Cl)ccc1-n1cnnn1)N[C@@H](CC(=O)N1CCN(Cc2ccccc2)CC1)C(=O)Nc1ccc(C(=O)O)cc1`, the IC50 in series [2] was 30.2 nM; in series [3] it was 1060 nM. For the same compound, the Ratio IC50 in series [4] came to 35. The compound further had an inhibition in series [1] of 53.3%.

As to `CC1CCN(C(=O)CC[C@H](NC(=O)/C=C/c2cc(Cl)ccc2-n2cnnn2)C(=O)Nc2ccc(C(=O)O)cc2)CC1`, the inhibition in series [1] was 3.1%.

Turning to `O=C(/C=C/c1cc(Cl)ccc1-n1cnnn1)N[C@@H](CC(=O)N1CCN(CC2CC2)CC1)C(=O)Nc1ccc(C(=O)O)cc1`, the IC50 in series [2] amounted to 7.8 nM; in series [3], 600 nM. The Ratio IC50 in series [4] was 77. The inhibition in series [1] came out at 65.7%.

`O=C(/C=C/c1cc(Cl)ccc1-n1cnnn1)N[C@@H](Cc1ccccc1)C(=O)Nc1ccc(C(=O)O)cc1`: the Activity entry in series [5] is on record as “Non-Toxic”; in series [6], “Non-Toxic”; in series [7] it was “Toxic”.

In the case of `CCCCN1CCN(C(=O)CC[C@H](NC(=O)/C=C/c2cc(Cl)ccc2-n2cnnn2)C(=O)Nc2ccc(C(=O)O)cc2)CC1`, the IC50 in series [3] turned out to be 2700 nM. In series [4], the Ratio IC50 came out at 30. In series [1], this compound came in with an inhibition of 39.3%.

`O=C(/C=C/c1cc(Cl)ccc1-n1cnnn1)N[C@@H](CC(=O)N1CCCN(CC2CC2)CC1)C(=O)Nc1ccc(C(=O)O)cc1`: the IC50 in series [2] stood at 67.1 nM; in series [3] it was 1400 nM. Also, in series [4], the Ratio IC50 was determined as 21. The inhibition in series [1] was 34.7%.

In series [1], `O=C(/C=C/c1cc(Cl)ccc1-n1cnnn1)N[C@@H](CCC(=O)N1CCN(Cc2cccc(Cl)c2)CC1)C(=O)Nc1ccc(C(=O)O)cc1` gave an inhibition of 3.8%.

`CC1CCN(C(=O)C[C@H](NC(=O)/C=C/c2cc(Cl)ccc2-n2cnnn2)C(=O)Nc2ccc(C(=O)O)cc2)CC1` came in with an inhibition in series [1] of 3.6%.

For the compound `CCN1CCN(C(=O)CC[C@H](NC(=O)/C=C/c2cc(Cl)ccc2-n2cnnn2)C(=O)Nc2ccc(C(=O)O)cc2)CC1`, the IC50 in series [2] amounted to 89.4 nM. The compound also had an inhibition in series [1] of 17.2%.

For `O=C(CN(Cc1ccccc1)C(=O)/C=C/c1cc(Cl)ccc1-n1cnnn1)Nc1ccc(C(=O)O)cc1`, the inhibition in series [1] stood at 15.3%.

Turning to `O=C(/C=C/c1cc(Cl)ccc1-n1cnnn1)N[C@@H](CC(=O)N1CCN(CCO)CC1)C(=O)Nc1ccc(C(=O)O)cc1`, the results for the half-maximal inhibitory concentration (IC50) in series [2] and in series [3] were 11.5 nM and 3400 nM, respectively. In addition, the Ratio IC50 in series [4] is 295. In series [1], this compound registered an inhibition of 60.2%.

In turn, `O=C(O)C[C@H](NC(=O)/C=C/c1cc(Cl)ccc1-n1cnnn1)C(=O)Nc1ccc(C(=O)O)cc1` had an inhibition in series [1] of 2.1%.

For the compound `CCCCN1CCN(C(=O)C[C@H](NC(=O)/C=C/c2cc(Cl)ccc2-n2cnnn2)C(=O)Nc2ccc(C(=O)O)cc2)CC1`, the IC50 in series [2] is 7.7 nM; in series [3], 510 nM. For the same compound, the inhibition in series [1] came to 51.5%.

`O=C(/C=C/c1cc(Cl)ccc1-n1cnnn1)N[C@@H](CC(=O)N1CCC(O)CC1)C(=O)Nc1ccc(C(=O)O)cc1` registered an inhibition in series [1] of 12.3%.

Take `O=C(/C=C/c1cc(Cl)ccc1-n1cnnn1)N[C@@H](CCC(=O)N1CCN(CC2CC2)CC1)C(=O)Nc1ccc(C(=O)O)cc1`: in series [3], the IC50 is 3100 nM. For the same compound, the Ratio IC50 in series [4] was 42. In addition, the inhibition in series [1] was 41.7%.

In the case of `O=C(CN(Cc1ccc(F)cc1)C(=O)/C=C/c1cc(Cl)ccc1-n1cnnn1)Nc1ccc(C(=O)O)cc1`, in series [1], the inhibition worked out at 7.2%.

As for `O=C(CN(Cc1ccccc1)C(=O)/C=C/c1cccc(Cl)c1)Nc1ccc(C(=O)O)cc1`, the inhibition in series [1] stood at 7.9%.

In series [1], `COc1ccc(CN(CC(=O)Nc2ccc(C(=O)O)cc2)C(=O)/C=C/c2cccc(Cl)c2)cc1` registered an inhibition below 5%.

In turn, `O=C(/C=C/c1cc(Cl)ccc1-n1cnnn1)N[C@@H](CCC(=O)N1CCC(O)CC1)C(=O)Nc1ccc(C(=O)O)cc1` displayed an inhibition in series [1] of 20.9%.

`O=C(/C=C/c1cc(Cl)ccc1-n1cnnn1)N[C@@H](CC(=O)N1CCCCC1)C(=O)Nc1ccc(C(=O)O)cc1` yielded an inhibition in series [1] of 15.9%.

With `CCN1CCN(C(=O)C[C@H](NC(=O)/C=C/c2cc(Cl)ccc2-n2cnnn2)C(=O)Nc2ccc(C(=O)O)cc2)CC1`, the IC50 in series [2] was 25.5 nM; in series [3], 2700 nM. Also, the Ratio IC50 in series [4] was found to be 106. Further, the inhibition in series [1] was determined as 45.5%.

As to `O=C(/C=C/c1cc(Cl)ccc1-n1cnnn1)N[C@@H](CCC(=O)N1CCSCC1)C(=O)Nc1ccc(C(=O)O)cc1`, the IC50 was 132 nM in series [2] and 6700 nM in series [3]. In addition, in series [4], the Ratio IC50 turned out to be 50. Further, in series [1], the inhibition is 21.9%.

`O=C(/C=C/c1cc(Cl)ccc1-n1cnnn1)N[C@@H](CCC(=O)N1CCS(=O)(=O)CC1)C(=O)Nc1ccc(C(=O)O)cc1` registered an inhibition in series [1] of 2.6%.

`O=C(/C=C/c1cc(Cl)ccc1-n1cnnn1)NCC(=O)Nc1ccc(C(=O)O)cc1` yielded an inhibition in series [1] below 5%.

For the compound `CC(C)N1CCN(C(=O)CC[C@H](NC(=O)/C=C/c2cc(Cl)ccc2-n2cnnn2)C(=O)Nc2ccc(C(=O)O)cc2)CC1`, the IC50 in series [2] was 73.5 nM. In addition, the inhibition in series [1] is 20.9%.

Consider `O=C(/C=C/c1cc(Cl)ccc1-n1cnnn1)N[C@@H](CCC(=O)N1CCCCC1)C(=O)Nc1ccc(C(=O)O)cc1`, for which, in series [1], the inhibition worked out at 16.1%.

Regarding `CN(C)C1CCN(C(=O)CC[C@H](NC(=O)/C=C/c2cc(Cl)ccc2-n2cnnn2)C(=O)Nc2ccc(C(=O)O)cc2)CC1`, the inhibition in series [1] amounted to 7.5%.

As to `COc1ccc(CN(CC(=O)Nc2ccc(C(=O)O)cc2)C(=O)/C=C/c2cc(Cl)ccc2-n2cnnn2)cc1`, the inhibition in series [1] came to 8.9%.

As to `CN1CCN(C(=O)CC[C@H](NC(=O)/C=C/c2cc(Cl)ccc2-n2cnnn2)C(=O)Nc2ccc(C(=O)O)cc2)CC1`, the IC50 in series [2] turned out to be 737 nM. In addition, in series [1], the inhibition was found to be 20.5%.
